The target of data set [1] is T1, wild type AXL (wtAXL) receptor tyrosine kinase (Homo sapiens, UniProt P30530).
T1 construct: WtAXL cDNA was cloned into vector pLXSN(ESK) and transfected into Phoenix E packaging cells; expressed in transfected cells; host or cells: NIH3T3 N7 mouse fibroblasts, retrovirally infected (clone 22)
T1 sequence (P30530 26-894): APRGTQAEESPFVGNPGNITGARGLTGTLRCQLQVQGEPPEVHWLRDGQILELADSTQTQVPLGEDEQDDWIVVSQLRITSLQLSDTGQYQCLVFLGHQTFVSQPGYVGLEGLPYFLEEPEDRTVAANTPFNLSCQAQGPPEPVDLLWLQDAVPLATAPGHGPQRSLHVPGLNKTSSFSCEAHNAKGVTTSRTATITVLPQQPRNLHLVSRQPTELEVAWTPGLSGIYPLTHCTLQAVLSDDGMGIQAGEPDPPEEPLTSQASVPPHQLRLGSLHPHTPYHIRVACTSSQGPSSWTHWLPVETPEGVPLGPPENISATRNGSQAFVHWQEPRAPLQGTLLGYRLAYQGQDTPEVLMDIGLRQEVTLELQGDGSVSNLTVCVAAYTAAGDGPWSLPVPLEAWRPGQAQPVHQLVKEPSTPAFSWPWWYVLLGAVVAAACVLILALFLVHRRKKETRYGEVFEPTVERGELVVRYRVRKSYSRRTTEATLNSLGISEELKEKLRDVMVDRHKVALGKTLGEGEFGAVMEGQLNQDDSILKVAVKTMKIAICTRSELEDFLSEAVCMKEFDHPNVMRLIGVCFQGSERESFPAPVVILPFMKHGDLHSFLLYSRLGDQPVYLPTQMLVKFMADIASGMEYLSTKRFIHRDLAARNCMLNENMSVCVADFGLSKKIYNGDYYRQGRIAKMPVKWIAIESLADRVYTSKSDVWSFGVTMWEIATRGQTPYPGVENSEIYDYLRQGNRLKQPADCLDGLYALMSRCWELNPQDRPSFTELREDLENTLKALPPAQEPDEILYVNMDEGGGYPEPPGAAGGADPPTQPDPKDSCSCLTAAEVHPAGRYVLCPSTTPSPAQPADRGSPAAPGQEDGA
Put plainly: NIH-3T3-AXL cellular tyrosine kinase assay (inhibition of AXL phosphorylation). The class given is cell-based. The following applies: AXL phosphorylation in NIH-3T3-AXL (clone 22) cells, serum-depleted, 2 h with compound, immunoprecipitation / anti-phosphotyrosine blot. An outline of the steps: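 NIH3T3 clones stably expressing human wtAXL (puromycin-selected) were exposed to serially diluted compounds for 2 h. AXL was immunoprecipitated from lysates with anti-AXL antibody, and phosphorylation detected by anti-phosphotyrosine (4G10) western blot with ECL.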

A word on the melting point: it is the temperature of the solid-liquid transition. As usually defined, the IC50 is the point on the concentration scale where inhibition reaches its midpoint. `Cc1cc(Oc2ccc(NS(=O)(=O)c3ccsc3)cc2)c2cc(F)ccc2n1` [Example B16, Thiophene-3-sulfonic acid [4-(6-fluoro-2-methyl-quinolin-4-yloxy)-phenyl]-amide] gave a melting point of 195 to 196 °C. For the same compound, the IC50 in data set [1] is above 10 µM.
Turning to `COc1cc(S(=O)(=O)Nc2ccc(Oc3ccnc4cc(OC)c(OC)cc34)c(F)c2)ccc1F` [Example A109, N-[4-(6,7-Dimethoxy-quinolin-4-yloxy)-3-fluoro-phenyl]-4-fluoro-3-methoxy-benzenesulfonamide], the melting point lay within 202 to 204 °C. For the same compound, the IC50 in data set [1] is above 1 µM.
Regarding `COc1cc2nccc(Oc3ccc(NS(=O)(=O)c4cccc(C#N)c4)c(F)c3)c2cc1OC` [Example A1, 3-Cyano-N-[4-(6,7-dimethoxy-quinolin-4-yloxy)-2-fluoro-phenyl]-benzenesulfonamide], the melting point was 223 to 224 °C. Further, in data set [1], the IC50 turned out to be 4.5 µM.
In turn, `COc1cc2c(Oc3ccc(NS(=O)(=O)c4ccccc4C(F)(F)F)cc3F)ccnc2cc1OCCCN1CCC(C)CC1` [Example D17, N-(3-Fluoro-4-{6-methoxy-7-[3-(4-methyl-piperidin-1-yl)-propoxy]-quinolin-4-yloxy}-phenyl)-2-trifluoromethyl-benzenesulfonamide] gave a melting point of 110 to 112 °C. For the same compound, the IC50 in data set [1] worked out at 0.046 µM.
As to `COc1cc(S(=O)(=O)Nc2ccc(Oc3ccnc4cc(OC)c(OC)cc34)cc2)ccc1F` [Example A116, N-[4-(6,7-Dimethoxy-quinolin-4-yloxy)-phenyl]-4-fluoro-3-methoxy-benzenesulfonamide], the melting point was in the range of 222 to 224 °C. Also, the IC50 in data set [1] is above 3 µM.
`Cc1cc(Oc2ccc(NS(=O)(=O)c3ccc(-c4ccccc4)cc3)c(F)c2)c2cccc(C(F)(F)F)c2n1` [Example C15] yielded a melting point of 215 to 217 °C. Besides, the IC50 in data set [1] is above 10 µM.
`COc1cc2nccc(Oc3ccc(NS(=O)(=O)c4cc(F)ccc4F)cc3F)c2cc1OC` [Example A99, N-[4-(6,7-Dimethoxy-quinolin-4-yloxy)-3-fluoro-phenyl]-2,5-difluoro-benzenesulfonamide] returned a melting point of 232 to 234 °C. For the same compound, the concentration for half-maximal inhibition (IC50) in data set [1] is 0.18 µM.
The corresponding values for `COc1cc2c(Oc3ccc(NS(=O)(=O)c4cccc(-c5ccccc5)c4)c(F)c3)ccnc2cc1OCc1ccccc1` [Example D01, Biphenyl-3-sulfonic acid [4-(7-benzyloxy-6-methoxy-quinolin-4-yloxy)-2-fluoro-phenyl]-amide] are 228 to 229 °C and above 10 µM.
In turn, `COc1cc2nccc(Oc3ccc(NS(=O)(=O)C4CC4)c(F)c3)c2cc1OC` [Example A33, Cyclopropanesulfonic acid [4-(6,7-dimethoxy-quinolin-4-yloxy)-2-fluoro-phenyl]-amide] returned a melting point of 179 to 180 °C. In addition, the 50% inhibitory concentration (IC50) in data set [1] is above 10 µM.
The compound `COc1cc2c(Oc3ccc(NS(=O)(=O)c4ccccc4F)cc3F)ccnc2cc1OCCCN1CCCC(C)C1` (stereo not drawn) [Example D30, 2-Fluoro-N-(3-fluoro-4-{6-methoxy-7-[3-(3-methyl-piperidin-1-yl)-propoxy]-quinolin-4-yloxy}-phenyl)-benzenesulfonamide] came in with a melting point of 102 to 106 °C. The IC50 in data set [1] turned out to be 0.082 µM.
Taken in the same sequence, the figures for `COc1cc2nccc(Oc3ccc(NS(=O)(=O)c4ccc(F)c(Cl)c4)c(F)c3)c2cc1OC` [Example A12, 3-Chloro-N-[4-(6,7-dimethoxy-quinolin-4-yloxy)-2-fluoro-phenyl]-4-fluoro-benzenesulfonamide] were 208 to 210 °C and 1.26 µM.
The corresponding values for `COc1cc2nccc(Oc3ccc(NS(=O)(=O)c4cccc(-c5ncccn5)c4)cc3)c2cc1OC` [Example A82, N-[4-(6,7-Dimethoxy-quinolin-4-yloxy)-phenyl]-3-pyrimidin-2-yl-benzenesulfonamide] are 194 to 195 °C and above 1 µM.
Taken in the same sequence, the figures for `Cc1cc(Oc2ccc(NS(=O)(=O)c3ccc(F)c(Cl)c3)c(F)c2)c2cccc(C(F)(F)F)c2n1` [Example C12, 3-Chloro-4-fluoro-N-[2-fluoro-4-(2-methyl-8-trifluoromethyl-quinolin-4-yloxy)-phenyl]-benzenesulfonamide] were 202 to 203 °C and above 10 µM.
`COc1cc2c(Oc3ccc(NS(=O)(=O)c4ccc(OC)c5ccccc45)cc3F)ccnc2cc1OCCN1CCOCC1` [Example D13, 4-Methoxy-naphthalene-1-sulfonic acid {3-fluoro-4-[6-methoxy-7-(2-morpholin-4-yl-ethoxy)-quinolin-4-yloxy]-phenyl}-amide] came in with a melting point of 189 to 190 °C. Besides, the IC50 in data set [1] turned out to be 0.057 µM.
Consider `COc1cc2nccc(Oc3ccc(NS(=O)(=O)c4ccccc4OC(F)(F)F)cc3C)c2cc1OC` [Example A129, N-[4-(6,7-Dimethoxy-quinolin-4-yloxy)-3-methyl-phenyl]-2-trifluoromethoxy-benzenesulfonamide], for which the melting point is 207 to 209 °C. In addition, in data set [1], the IC50 is above 3 µM.
`Cc1cc(Oc2ccc(NS(=O)(=O)c3cc4ccccc4s3)c(F)c2)c2cccc(C(F)(F)F)c2n1` [Example C17, Benzo[b]thiophene-2-sulfonic acid [2-fluoro-4-(2-methyl-8-trifluoromethyl-quinolin-4-yloxy)-phenyl]-amide] registered a melting point of 182 to 184 °C. For the same compound, in data set [1], the half-maximal inhibitory concentration (IC50) is above 10 µM.
As for `COc1cc2c(Oc3ccc(NS(=O)(=O)c4ccccc4OC(F)(F)F)cc3F)ccnc2cc1OCCCN1CCC(C)CC1` [Example D33, N-(3-Fluoro-4-{6-methoxy-7-[3-(4-methyl-piperidin-1-yl)-propoxy]-quinolin-4-yloxy}-phenyl)-2-trifluoromethoxy-benzenesulfonamide], the melting point lay in the range of 206 to 208 °C. The IC50 in data set [1] came out at 0.068 µM.
`COc1cc(S(=O)(=O)Nc2ccc(Oc3ccnc4cc(OC)c(OC)cc34)cc2F)ccc1F` [Example A61, N-[4-(6,7-Dimethoxy-quinolin-4-yloxy)-2-fluoro-phenyl]-4-fluoro-3-methoxy-benzenesulfonamide]: the melting point lay within 214 to 216 °C. Moreover, in data set [1], the IC50 is 0.7 µM.
Turning to `COc1cc(C)c(C)cc1S(=O)(=O)Nc1ccc(Oc2cc(C)nc3c(C(F)(F)F)cccc23)c(F)c1` [Example C10, N-[3-Fluoro-4-(2-methyl-8-trifluoromethyl-quinolin-4-yloxy)-phenyl]-2-methoxy-4,5-dimethyl-benzenesulfonamide], the melting point is 230 to 232 °C. Further, in data set [1], the IC50 was above 10 µM.
As for `Cc1cc(Oc2ccc(NS(=O)(=O)C3CC3)c(F)c2)c2cc(F)ccc2n1` [Example B4, Cyclopropanesulfonic acid [2-fluoro-4-(6-fluoro-2-methyl-quinolin-4-yloxy)-phenyl]-amide], the melting point lay within 189 to 190 °C. Further, the IC50 in data set [1] was above 10 µM.
For `COc1cc2nccc(Oc3ccc(NS(=O)(=O)/C=C/c4ccccc4)c(F)c3)c2cc1OC` [Example A16, 2-Phenyl-ethenesulfonic acid [4-(6,7-dimethoxy-quinolin-4-yloxy)-2-fluoro-phenyl]-amide], the melting point lay in the range of 224 to 225 °C. Further, in data set [1], the IC50 is 1.81 µM.
With `COc1cc2nccc(Oc3ccc(NS(=O)(=O)c4ccc(Br)c(Cl)c4)c(C)c3)c2cc1OC` [Example A152, 4-Bromo-3-chloro-N-[4-(6,7-dimethoxy-quinolin-4-yloxy)-2-methyl-phenyl]-benzenesulfonamide], the melting point was 212 to 213 °C. In addition, in data set [1], the 50% inhibitory concentration (IC50) was above 10 µM.
On to `COc1cc2c(Oc3ccc(NS(=O)(=O)c4c(F)cccc4F)cc3F)ccnc2cc1OCCCN1CCC(C)CC1` [Example D20, 2,6-Difluoro-N-(3-fluoro-4-{6-methoxy-7-[3-(4-methyl-piperidin-1-yl)-propoxy]-quinolin-4-yloxy}-phenyl)-benzenesulfonamide], for which the melting point was 200 to 203 °C. Also, the IC50 in data set [1] is 0.029 µM.
In turn, `COc1cc2nccc(Oc3ccc(NS(=O)(=O)c4ccccc4F)c(F)c3)c2cc1OC` [Example A59, N-[4-(6,7-Dimethoxy-quinolin-4-yloxy)-2-fluoro-phenyl]-2-fluoro-benzenesulfonamide] returned a melting point of 235 to 236 °C. In data set [1], the IC50 was above 1 µM.

(Values after patent US9206130B2, “Quinoline derivatives as AXL kinase inhibitors” (Max-Planck-Gesellschaft zur Förderung der Wissenschaften …, priority 2008, dated 2015).)
